Reference: paper PMC10195144, “Purification and characterization of a cold-active myrosinase from marine Pseudomonas oleovorans SuMy07” (Acta Biochimica et Biophysica Sinica, 2023)

System: T1, myrosinase of SuMy07
T1 construct: gene beta-thioglucoside glucohydrolase; native enzyme purified from the marine isolate (ultrafiltration, ammonium sulfate, Superdex 200); two subunits of 65 kDa
Test: double-reciprocal plot of sinigrin hydrolysis
Assay type: biochemical, Pseudomonas oleovorans
Settings: pH 7.0, 25 °C

C=CC/C(=N/OS(=O)(=O)O)S[C@@H]1O[C@H](CO)[C@@H](O)[C@H](O)[C@H]1O [sinigrin hydrate]
Km: 1400 µM
